For one series, the target named is N5 (H12N5) neuraminidase (Influenza A virus, UniProt A1ILL9). The experiment in a line: biochemical.
Another series concerns the target N2 (H3N2) neuraminidase (Influenza A virus, UniProt Q8AZ87). The experiment in a line: biochemical.
The next series can be described thus: in vitro. The following applies: dog.
For series [1], the system named is H1N1 (A/Puerto Rico/8/34). As to the kind of experiment: microbe, parasite or virus in culture. The class given is cell-based, influenza A virus. The following applies: read-out: EC50 H1N1.
A further series relates to H3N2 (A/Moscow/10/99). As to the kind of experiment: microbe, parasite or virus in culture. Format: cell-based, influenza A virus. The settings on record: read-out: EC50 H3N2.

Where two headings read alike, the source gives them in different places.

For `CCC(CC)O[C@@H]1C=C(C(=O)O)C[C@H](n2cc(-c3ccc(N(CC)CC)cc3)nn2)[C@H]1NC(C)=O` [Compound 1m, (3R,4R,5S)-4-Acetamido-5-[4-(4-diethylaminophenyl)-1H-1,2,3-triazol-1-yl]-3-(pentan-3-yloxy)cyclohex-1-ene-1-carboxylic acid], at N5 (H12N5) neuraminidase, the IC50 was > 100 µM.
Same read-out and setting: as for `CCC(CC)O[C@@H]1C=C(C(=O)O)C[C@H](n2cc(-c3ccccc3N)nn2)[C@H]1NC(C)=O` [Compound 1k, (3R,4R,5S)-4-Acetamido-5-[4-(2-aminophenyl)-1H-1,2,3-triazol-1-yl]-3-(pentan-3-yloxy)cyclohex-1-ene-1-carboxylic acid], the figure is 0.52 ± 0.13 µM.
Same read-out and setting: the same measure for `CCC(CC)O[C@@H]1C=C(C(=O)O)C[C@H](n2nncc2-c2ccc(N(C)C)cc2)[C@H]1NC(C)=O` [Compound 2l, (3R,4R,5S)-4-Acetamido-5-[5-(4-dimethylaminophenyl)-1H-1,2,3-triazol-1-yl]-3-(pentan-3-yloxy)cyclohex-1-ene-1-carboxylic acid]: 0.14 ± 0.016 µM; for `CCC(CC)O[C@@H]1C=C(C(=O)O)C[C@H](n2cc(-c3ccccc3)nn2)[C@H]1NC(C)=O` [Compound 1e, (3R,4R,5S)-4-Acetamido-3-(pentan-3-yloxy)-5-(4-phenyl-1H-1,2,3-triazol-1-yl)cyclohex-1-ene-1-carboxylic acid]: 12.9 ± 1.57 µM; for `CCC(CC)O[C@@H]1C=C(C(=O)O)C[C@H](n2nncc2COc2ccc(C[C@H](N)C(=O)O)cc2)[C@H]1NC(C)=O` [Compound 2n, (3R,4R,5S)-4-Acetamido-5-{5-{[4-((S)-2-amino-2-carboxyethyl)phenoxy]methyl}-1H-1,2,3-triazol-1-yl}-3-(pentan-3-yloxy)cyclohex-1-ene-1-carboxylic acid]: 2.43 ± 0.33 µM.
On to `CCC(CC)O[C@@H]1C=C(C(=O)O)C[C@H](n2cc(COc3ccc(C[C@H](N)C(=O)O)cc3)nn2)[C@H]1NC(C)=O` [Compound 1n, (3R,4R,5S)-4-Acetamido-5-{4-{[4-((S)-2-amino-2-carboxyethyl)phenoxy]methyl}-1H-1,2,3-triazol-1-yl}-3-(pentan-3-yloxy)cyclohex-1-ene-1-carboxylic acid], for which, on N5 (H12N5) neuraminidase, the IC50 came to 6.95 ± 0.47 µM.
Take `CCC(CC)O[C@@H]1C=C(C(=O)O)C[C@H](n2cc(-c3ccc(N)cc3)nn2)[C@H]1NC(C)=O` [Compound 1i, (3R,4R,5S)-4-Acetamido-5-[4-(4-aminophenyl)-1H-1,2,3-triazol-1-yl]-3-(pentan-3-yloxy)cyclohex-1-ene-1-carboxylic acid]: the IC50 on N5 (H12N5) neuraminidase was > 100 µM.
Still for that read-out and setting: the same measure for `CCC(CC)O[C@@H]1C=C(C(=O)O)C[C@H](n2cc(-c3cccc(N)c3)nn2)[C@H]1NC(C)=O` [Compound 1j, (3R,4R,5S)-4-Acetamido-5-[4-(3-aminophenyl)-1H-1,2,3-triazol-1-yl]-3-(pentan-3-yloxy)cyclohex-1-ene-1-carboxylic acid]: 3.6 ± 0.82 µM.
As for `CCC(CC)O[C@@H]1C=C(C(=O)O)C[C@H](n2cc(-c3ccc(Oc4ccccc4)cc3)nn2)[C@H]1NC(C)=O` [Compound 1b, (3R,4R,5S)-4-Acetamido-3-(pentan-3-yloxy)-5-[4-(4-phenoxyphenyl)-1H-1,2,3-triazol-1-yl]cyclohex-1-ene-1-carboxylic acid], the IC50 on N2 (H3N2) neuraminidase and against N5 (H12N5) neuraminidase was > 100 µM throughout.
With `CCC(CC)O[C@@H]1C=C(C(=O)O)C[C@H](n2nncc2-c2cccc(N)c2)[C@H]1NC(C)=O` [Compound 2j, (3R,4R,5S)-4-Acetamido-5-[5-(3-aminophenyl)-1H-1,2,3-triazol-1-yl]-3-(pentan-3-yloxy)cyclohex-1-ene-1-carboxylic acid], in “in vitro”, the CC50 was > 500 µM. For the same molecule, the EC50 came to 11.5 ± 2.69 µM in series [1] (Influenza A virus, H1N1, MDCK, 72 h) and 7.65 ± 0.7 µM with H3N2 (A/Moscow/10/99) (Influenza A virus, H3N2, MDCK, 72 h). For the same molecule, the IC50 against N5 (H12N5) neuraminidase was found to be 0.045 ± 0.016 µM.
In turn, `CCC(CC)O[C@@H]1C=C(C(=O)O)C[C@H](n2cc(-c3ccccc3C(=O)O)nn2)[C@H]1NC(C)=O` [Compound 1h, (3R,4R,5S)-4-Acetamido-5-[4-(2-carboxyphenyl)-1H-1,2,3-triazol-1-yl]-3-(pentan-3-yloxy)cyclohex-1-ene-1-carboxylic acid] displayed an IC50 against N5 (H12N5) neuraminidase of 61.2 ± 23.7 µM.
The same measure, in the same setting: the same measure for `CCC(CC)O[C@@H]1C=C(C(=O)O)C[C@H](n2cc(-c3ccc(C(=O)O)cc3)nn2)[C@H]1NC(C)=O` [Compound 1f, (3R,4R,5S)-4-Acetamido-5-[4-(4-carboxyphenyl)-1H-1,2,3-triazol-1-yl]-3-(pentan-3-yloxy)cyclohex-1-ene-1-carboxylic acid]: 8.14 ± 1.12 µM; for `CCC(CC)O[C@@H]1C=C(C(=O)O)C[C@H](n2nncc2-c2ccc(N)cc2)[C@H]1NC(C)=O` [Compound 2i, (3R,4R,5S)-4-Acetamido-5-[5-(4-aminophenyl)-1H-1,2,3-triazol-1-yl]-3-(pentan-3-yloxy)cyclohex-1-ene-1-carboxylic acid]: 0.25 ± 0.044 µM; for `CCC(CC)O[C@@H]1C=C(C(=O)O)C[C@H](n2nncc2-c2ccccc2C(=O)O)[C@H]1NC(C)=O` [Compound 2h, (3R,4R,5S)-4-Acetamido-5-[5-(2-carboxyphenyl)-1H-1,2,3-triazol-1-yl]-3-(pentan-3-yloxy)cyclohex-1-ene-1-carboxylic acid]: 0.57 ± 0.13 µM.
On to `CCC(CC)O[C@@H]1C=C(C(=O)O)C[C@H](N)[C@H]1NC(C)=O` [OSC, oseltamivir carboxylate, reference compound], for which the CC50 in the series “in vitro” is > 500 µM. Besides, the EC50 in series [1] worked out at 0.25 ± 0.081 µM; in the series with H3N2 (A/Moscow/10/99), 0.43 ± 0.08 µM. The concentration for half-maximal inhibition (IC50) on N5 (H12N5) neuraminidase is 0.00094 ± 0.0003 µM.
Consider `CCC(CC)O[C@@H]1C=C(C(=O)O)C[C@H](n2nncc2-c2cccc(C(=O)O)c2)[C@H]1NC(C)=O` [Compound 2g, (3R,4R,5S)-4-Acetamido-5-[5-(3-carboxyphenyl)-1H-1,2,3-triazol-1-yl]-3-(pentan-3-yloxy)cyclohex-1-ene-1-carboxylic acid], for which the IC50 on N5 (H12N5) neuraminidase worked out at 2.04 ± 0.99 µM.
On to `CCC(CC)O[C@@H]1C=C(C(=O)O)C[C@H](n2cc(-c3ccc(C)cc3)nn2)[C@H]1NC(C)=O` [Compound 1d, (3R,4R,5S)-4-Acetamido-5-[4-(4-methylphenyl)-1H-1,2,3-triazol-1-yl]-3-(pentan-3-yloxy)cyclohex-1-ene-1-carboxylic acid], for which the IC50 turned out to be 4.41 ± 1.11 µM against N2 (H3N2) neuraminidase and 2.85 ± 1.28 µM against N5 (H12N5) neuraminidase.
Turning to `CCC(CC)O[C@@H]1C=C(C(=O)O)C[C@H](n2cc(-c3ccc(N(C)C)cc3)nn2)[C@H]1NC(C)=O` [Compound 1l, (3R,4R,5S)-4-Acetamido-5-[4-(4-dimethylaminophenyl)-1H-1,2,3-triazol-1-yl]-3-(pentan-3-yloxy)cyclohex-1-ene-1-carboxylic acid], half-maximal inhibition against N5 (H12N5) neuraminidase (IC50) required 0.74 ± 0.18 µM.
Take `CCC(CC)O[C@@H]1C=C(C(=O)O)C[C@H](n2cc(-c3ccc(-c4ccccc4)cc3)nn2)[C@H]1NC(C)=O` [Compound 1a, (3R,4R,5S)-4-Acetamido-5-[4-(1,1′-biphenyl-4-yl)-1H-1,2,3-triazol-1-yl]-3-(pentan-3-yloxy)cyclohex-1-ene-1-carboxylic acid]: the IC50 on N2 (H3N2) neuraminidase and on N5 (H12N5) neuraminidase was > 100 µM throughout.
For the molecule `CCC(CC)O[C@@H]1C=C(C(=O)O)C[C@H](n2nncc2-c2ccc(N(CC)CC)cc2)[C@H]1NC(C)=O` [Compound 2m, (3R,4R,5S)-4-Acetamido-5-[5-(4-diethylaminophenyl)-1H-1,2,3-triazol-1-yl]-3-(pentan-3-yloxy)cyclohex-1-ene-1-carboxylic acid], at N5 (H12N5) neuraminidase, the IC50 is > 100 µM.
On N5 (H12N5) neuraminidase, `CCC(CC)O[C@@H]1C=C(C(=O)O)C[C@H](n2cc(-c3cccc(C(=O)O)c3)nn2)[C@H]1NC(C)=O` [Compound 1g, (3R,4R,5S)-4-Acetamido-5-[4-(3-carboxyphenyl)-1H-1,2,3-triazol-1-yl]-3-(pentan-3-yloxy)cyclohex-1-ene-1-carboxylic acid] came in with an IC50 of 29.5 ± 8 µM.
In the case of `CCC(CC)O[C@@H]1C=C(C(=O)O)C[C@H](n2cc(COc3ccc4ccccc4c3)nn2)[C@H]1NC(C)=O` [Compound 1c, (3R,4R,5S)-4-Acetamido-5-[4-(2-naphthyloxy)methyl-1H-1,2,3-triazol-1-yl]-3-(pentan-3-yloxy)cyclohex-1-ene-1-carboxylic acid], the figures for the IC50 at N2 (H3N2) neuraminidase and at N5 (H12N5) neuraminidase were 3.8 ± 0.65 µM and 1.66 ± 0.25 µM, respectively.
Consider `CCC(CC)O[C@@H]1C=C(C(=O)O)C[C@H](n2nncc2-c2ccccc2N)[C@H]1NC(C)=O` [Compound 2k, (3R,4R,5S)-4-Acetamido-5-[5-(2-aminophenyl)-1H-1,2,3-triazol-1-yl]-3-(pentan-3-yloxy)cyclohex-1-ene-1-carboxylic acid], for which the midpoint of inhibition against N5 (H12N5) neuraminidase, the IC50, lay at 0.41 ± 0.047 µM.
Regarding `CCC(CC)O[C@@H]1C=C(C(=O)O)C[C@H](n2nncc2-c2ccccc2)[C@H]1NC(C)=O` [Compound 2e, (3R,4R,5S)-4-Acetamido-3-(pentan-3-yloxy)-5-(5-phenyl-1H-1,2,3-triazol-1-yl)cyclohex-1-ene-1-carboxylic acid], the IC50 against N5 (H12N5) neuraminidase turned out to be 5.34 ± 0.45 µM.
The same measure, in the same setting: the same measure for `CCC(CC)O[C@@H]1C=C(C(=O)O)C[C@H](n2nncc2-c2ccc(C(=O)O)cc2)[C@H]1NC(C)=O` [Compound 2f, (3R,4R,5S)-4-Acetamido-5-[5-(4-carboxyphenyl)-1H-1,2,3-triazol-1-yl]-3-(pentan-3-yloxy)cyclohex-1-ene-1-carboxylic acid]: 3.92 ± 0.69 µM.

Usually IC50 stands for the midpoint of a concentration-inhibition curve. Lower therefore signals inhibition by little substance. A word on the EC50: it is the concentration that produces a half-maximal response.

Values taken from PMC8696196 (RSC Advances, 2021).
